From article PMC4215169 (Nature communications, 2014)

Columns and labels:
HCV protease = conditions: cited from earlier work
HCV protease D168Y = HCV protease D168Y (Hepatitis C virus genotype 1a, UniProt P27958, D1194Y); assay: biochemical
wild-type HCV protease = wild-type HCV protease (Hepatitis C virus genotype 1a, UniProt P27958); format: biochemical
HCV protease D168E = HCV protease D168E (Hepatitis C virus genotype 1a, UniProt P27958, D1194E); assay: biochemical

Structure (SMILES)	IC50 (HCV protease) [nM]	IC50 (HCV protease D168Y) [nM]	IC50 (wild-type HCV protease) [nM]	IC50 (HCV protease D168E) [nM]
C=C[C@@H]1C[C@]1(NC(=O)[C@@H]1C[C@@H](Oc2ncc(OC)c3ccc(Cl)cc23)CN1C(=O)[C@@H](NC(=O)OC(C)(C)C)C(C)(C)C)C(=O)NS(=O)(=O)C1CC1 [asunaprevir]	~1	–	–	–
CC(C)(C)OC(=O)N[C@H]1CCCCC/C=C\[C@@H]2C[C@@]2(C(=O)NS(=O)(=O)C2CC2)NC(=O)[C@@H]2C[C@@H](OC(=O)N3Cc4cccc(F)c4C3)CN2C1=O [danoprevir]	~0.3	34.4 ± 2.8	1.3 ± 0.1	38.9 ± 2.4
